Read-outs that look alike come from different tables or passages of the source.
Legend:
[1] = molecular target: T1, JAK2 (Homo sapiens, UniProt O60674); assay: Assay 1: LanthaScreen biochemical JAK kinase assay, JAK2; settings: converted from pIC50 by Cheng-Prusoff; ATP at Km 3 μM; read-out: JAK 2 pKi (converted)
T1 construct: GST; purchased Life Technologies
Experimental: A panel of four LanthaScreen JAK biochemical assays (JAK1, 2, 3 and Tyk2) were carried in a common kinase reaction buffer (50 mM HEPES, pH 7.5, 0.01% Brij-35, 10 mM MgCl2, and 1 mM EGTA). Recombinant GST-tagged JAK enzymes and a GFP-tagged STAT1 peptide substrate were obtained from Life Technologies.
The serially diluted compound was pre-incubated with each of the four JAK enzymes and the substrate in white 384-well microplates (Corning) at ambient temperature for lh. ATP was subsequently added to initiate the kinase reactions in 10 μL total volume, with 1% DMSO. […] The plates were allowed to incubate at ambient temperature for lh before being read on the EnVision reader (Perkin Elmer). Emission ratio signals (520 nm/495 nm) were recorded and utilized to calculate the percent inhibition values based on DMSO and background controls.
For dose-response analysis, percent inhibition data were plotted vs. compound concentrations, and IC50 values were determined from a 4-parameter robust fit model with the Prism software (GraphPad Software). Results were expressed as pIC50 (negative logarithm of IC50) and subsequently converted to pK1 (negative logarithm of dissociation constant, Ki) using the Cheng-Prusoff equation.

[2] = Assay 12: Ocular pharmacokinetics in rabbit eyes; assay type: in vivo, New Zealand white rabbits; settings: for half-life: New Zealand white, vitreous, intravitreal solution formulation, 200 μg/eye and 50 μg/eye
Experimental: The objective of this assay was to determine the pharmacokinetics of the compound 1 in rabbit ocular tissues.
The compound of the invention, 5-ethyl-2-fluoro-4-(3-(5-(1-methylpiperidin-4-yl)-4,5,6,7-tetrahydro-1H-imidazo[4,5-c]pyridin-2-yl)-1H-indazol-6-yl)phenol (1) was dissolved in either 10% 2-hydroxypropyl-β-cyclodextrin to attain a target concentration of 4 mg/mL or in purified water to attain a target concentration of 1 mg/mL . Bilateral intravitreal injection (50 μL/eye) of the solution of test compound was administered to New Zealand white rabbits in two dose groups, 200 μg/eye and 50 μg/eye, respectively, for the cyclodextrin and water vehicle formulations, respectively. The test compound concentration was measured in ocular tissues: vitreous, aqueous, retina/choroid and iris-ciliary body at pre-determined time points post injection (30 min, 4 h, 1 d, 3 d, 7 d, 14 d). Two rabbits (four eyes) were dosed for each time point.
A suspension formulation was prepared by combining crystalline compound 1 of Example 2 with 0.5% hydroxypropyl methylcellulose (HPMC E5)+0.02% Tween 80 to attain a target concentration of 10 mg/mL. Bilateral intravitreal injection (50 μL/eye) of the suspension of test compound was administered to New Zealand white rabbits (500 μg/eye). The test compound concentration was measured in ocular tissues as in the […] at 30 min, 2 wks, 4 wks, 6 wks, and 8 wks post injection. […] The behavior is consistent with the solubility of compound 1 in the vehicle and the ocular pharmacokinetic behavior in the solution formulation. The drug concentration in plasma was measured and found to be at least 3 orders of magnitude lower than the concentration in vitreous tissue.

[3] = Assay 8: Pharmacokinetics in plasma and lung in mouse; assay type: in vivo, BALB/c mice; settings: BALB/c, 10 µg/mouse, oral aspiration, 0.2 mg/mL, 50 uL, read-out: exposure in lung relative to exposure in plasma (lung AUC to plasma AUC ratio)
Experimental: Plasma and lung levels of test compounds and ratios thereof were determined in the following manner. BALB/c mice from Charles River Laboratories were used in the assay. Test compounds were individually formulated in 20% propylene glycol in pH 4 citrate buffer at a concentration of 0.2 mg/mL and 50 uL of the dosing solution was introduced into the trachea of a mouse by oral aspiration. At various time points (typically 0.167, 2, 6, 24 hr) post dosing, blood samples were removed via cardiac puncture and intact lungs were excised from the mice. Blood samples were centrifuged (Eppendorf centrifuge, 5804R) for 4 minutes at approximately 12,000 rpm at 4° C. to collect plasma. Lungs were padded dry, weighed, and homogenized at a dilution of 1:3 in sterile water. Plasma and lung levels of test compound were determined by LC-MS analysis against analytical standards constructed into a standard curve in the test matrix. A lung to plasma ratio was determined as the ratio of the lung AUC in μg hr/g to the plasma AUC in μg hr/mL, where AUC is conventionally defined as the area under the curve of test compound concentration vs. time.

T1 sequence (O60674 whole entry): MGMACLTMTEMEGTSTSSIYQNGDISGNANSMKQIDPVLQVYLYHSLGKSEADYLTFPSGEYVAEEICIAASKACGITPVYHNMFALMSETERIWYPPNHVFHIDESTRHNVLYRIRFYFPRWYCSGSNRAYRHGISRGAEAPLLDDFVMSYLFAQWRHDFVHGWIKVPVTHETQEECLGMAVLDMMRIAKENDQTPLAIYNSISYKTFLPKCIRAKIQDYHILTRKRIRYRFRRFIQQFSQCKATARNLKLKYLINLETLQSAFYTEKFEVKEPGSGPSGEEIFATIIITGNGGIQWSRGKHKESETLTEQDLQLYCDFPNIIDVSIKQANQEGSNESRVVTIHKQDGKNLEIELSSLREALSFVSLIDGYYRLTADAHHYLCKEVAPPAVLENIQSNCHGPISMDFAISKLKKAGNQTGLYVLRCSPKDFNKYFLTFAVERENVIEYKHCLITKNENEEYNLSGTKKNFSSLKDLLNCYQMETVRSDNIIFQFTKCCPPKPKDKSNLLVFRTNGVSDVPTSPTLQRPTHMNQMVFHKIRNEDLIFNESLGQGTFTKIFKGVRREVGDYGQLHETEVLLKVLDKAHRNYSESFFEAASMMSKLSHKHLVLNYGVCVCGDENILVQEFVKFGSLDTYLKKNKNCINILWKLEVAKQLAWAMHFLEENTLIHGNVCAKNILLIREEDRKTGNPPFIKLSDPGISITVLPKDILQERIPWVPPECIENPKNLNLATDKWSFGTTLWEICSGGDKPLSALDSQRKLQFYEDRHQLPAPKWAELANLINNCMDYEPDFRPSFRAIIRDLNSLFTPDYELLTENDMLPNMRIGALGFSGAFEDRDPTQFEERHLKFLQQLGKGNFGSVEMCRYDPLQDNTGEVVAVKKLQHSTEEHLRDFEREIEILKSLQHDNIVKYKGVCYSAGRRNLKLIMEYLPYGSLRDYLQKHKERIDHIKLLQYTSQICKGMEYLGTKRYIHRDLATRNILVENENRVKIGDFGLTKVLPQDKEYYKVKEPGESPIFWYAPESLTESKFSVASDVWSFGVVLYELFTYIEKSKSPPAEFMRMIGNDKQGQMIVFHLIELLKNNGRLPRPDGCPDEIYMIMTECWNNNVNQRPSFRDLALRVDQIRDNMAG

Question: For `CCc1cc(O)c(F)cc1-c1ccc2c(-c3nc4c([nH]3)CCN(C3CCN(C)CC3)C4)n[nH]c2c1` [Compound 1, 5-ethyl-2-fluoro-4-(3-(5-(1-methylpiperidin-4-yl)-4,5,6,7-tetrahydro-1H-imidazo[4,5-c]pyridin-2-yl)-1H-indazol-6-yl)phenol], which Ki [1] is on record?
Answer: Its Ki is 0.0158 nM.

Question: What about the half-life ([2]; read-out: half-life of initial decrease in concentration in vitreous tissue (converted)) of the same molecule?
Answer: The half-life was ~12 h.

Question: What about the half-life ([2]; read-out: terminal half-life in vitreous tissue (converted)) of the same molecule?
Answer: The half-life was ~86.4 h.

Question: What about the “clearance rate (linear decrease in drug concentration in the vitreous)” value ([2]; intravitreal suspension of crystalline compound 1 of Example 2, 500 μg/eye, 30 min to 6 weeks) of the same molecule?
Answer: The value was “approximately 3 μg/mL/day”.

Question: And the Kp [3]?
Answer: Its Kp is ~55.

— US10251874B2, “Crystalline forms of a JAK inhibitor compound” (THERAVANCE BIOPHARMA R&D IP, LLC, priority 2017, dated 2019)
